Experiments:
[1] = MRT in ICR mouse at 25 mg/kg, po administered as single dose and measured upto 24 hrs by LC-MS/MS analysis; type: ADME, organism-based; details: in vivo
[2] = AUC (0 to t) in ICR mouse at 25 mg/kg, po administered as single dose and measured upto 24 hrs by LC-MS/MS analysis; type: ADME, organism-based; details: in vivo
[3] = Half-life in ICR mouse at 25 mg/kg, po administered as single dose and measured upto 24 hrs by LC-MS/MS analysis; type: ADME, organism-based; details: in vivo
[4] = Acute toxicity in A129 mouse assessed as animal death at 100 mg/kg, po measured after 2 weeks; type: organism-based; details: in vivo, 336 h
[5] = Acute toxicity in po dosed ICR mouse assessed as lethal dose measured after 2 weeks; type: organism-based; details: in vivo
[6] = system: Zika virus; assay: Antiviral activity against Zika virus infected in golden hamster BHK cells assessed as inhibition of virus induced cytopathic effect incubated for 6 to 8 days by CellTiter-Glo luminescent cell viability assay; type: functional, organism-based
[7] = Tmax in ICR mouse at 25 mg/kg, po administered as single dose and measured upto 24 hrs by LC-MS/MS analysis; type: ADME, organism-based; details: in vivo
[8] = Cmax in ICR mouse at 25 mg/kg, po administered as single dose and measured upto 24 hrs by LC-MS/MS analysis; type: ADME, organism-based; details: in vivo
[9] = Acute toxicity in A129 mouse assessed as animal death at 50 mg/kg, po measured after 2 weeks; type: organism-based; details: in vivo, 336 h
[10] = system: Zika virus; assay: Antiviral activity against Zika virus infected in golden hamster BHK-21 cells assessed as inhibition of viral replication incubated for 72 hrs by Dual-luciferase reporter assay system; type: functional, organism-based; details: BHK-21, 72 h

IC50 [10] [nM]	SMILES	MRT [1] [h]	AUC(0-t) at 24 h [2] [ng·h/mL]	half-life [3] [h]	Activity [4]	LD50 at 336 h [5] [mg/kg]	IC50 [6] [nM]	Tmax [7] [h]	Cmax [8] [ng/mL]	Activity [9]
–	CC1CCCN(C[C@H]2O[C@@H](n3cnc4c(NCc5cccc(Cl)c5)ncnc43)[C@H](O)[C@@H]2O)C1 (stereo not given in full)	3.95	2910	3.56	Non-Toxic	> 200	1400	0.5	837	Non-Toxic
1760	C[C@@]1(O)[C@H](O)[C@@H](CO)O[C@H]1n1cnc2c(N)ncnc21	–	–	–	–	–	–	–	–	–
